Results published in patent US20250101038A1, “COMPOUNDS” (priority 2021, published 2025).
pEC50: −log10 of the molar value. Where two headings read alike, the source gives them in different places.

Assays:
5-HT2A receptor = biological target: T1, 5-HT2A receptor (Homo sapiens, UniProt P28223); test: FLIPR Ca2+ flux functional assay, 5-HT2A; type: cell-based
T1 construct: host or cells: HEK293
Procedure: Activity at 5-HT2A, 5-HT2B and 5-HT2C receptors was determined using a FLIPR Ca^2+ flux assay at WuXi AppTec Co. Ltd. (Hong Kong) Discovery Biology Unit according to their standard protocols. Briefly, stably transfected cells expressing the receptor of interest (HEK293 for 5-HT2A and 5-HT2C; CHO-K1 for 5-HT2B) were grown and plated in a 384 well plate and incubated at 37° C. and 5% CO2 overnight. A 250 mM stock solution of probenecid in FLIPR calcium assay buffer (10 mL) was freshly prepared and combined with a fluorescent dye (Fluo-4 Direct) to give a final assay concentration of 2.5 mM. Reference compounds were 4-fold serially diluted and the screening compounds were 3-fold serially diluted in 100% DMSO for 10 points using Agilent Bravo, and 750 nL was added to a 384 well compound plate using Echo along with 30 μL assay buffer. The fluorescent dye was then added to the assay plate along with assay buffer to a final volume of […]. The cell plate was incubated for 50 min at 37° C. and 5% CO2 and placed into the FLIPR Tetra along with the compound plate. 10 μL of references and compounds were then transferred from the compound plate into the cell plate and the fluorescent signal was read.

5-HT2B receptor = biological target: T2, 5-HT2B receptor (Homo sapiens, UniProt P41595); test: cell-based
T2 construct: host or cells: CHO-K1
T2 sequence (P41595 whole entry): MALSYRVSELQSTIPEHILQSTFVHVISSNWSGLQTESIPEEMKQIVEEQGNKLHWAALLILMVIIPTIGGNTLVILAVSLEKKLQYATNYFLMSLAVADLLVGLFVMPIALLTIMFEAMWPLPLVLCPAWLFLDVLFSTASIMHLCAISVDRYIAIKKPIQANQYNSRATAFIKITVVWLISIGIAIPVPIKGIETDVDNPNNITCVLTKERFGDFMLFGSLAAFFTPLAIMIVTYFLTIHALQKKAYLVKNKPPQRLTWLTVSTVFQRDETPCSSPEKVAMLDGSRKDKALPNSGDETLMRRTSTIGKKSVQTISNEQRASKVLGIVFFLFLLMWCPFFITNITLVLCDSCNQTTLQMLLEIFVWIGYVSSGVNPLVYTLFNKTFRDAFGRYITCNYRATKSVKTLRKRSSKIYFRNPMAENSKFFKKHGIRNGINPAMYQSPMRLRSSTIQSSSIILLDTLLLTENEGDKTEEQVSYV

5-HT2C receptor = biological target: T3, 5-HT2C receptor (Homo sapiens, UniProt P28335); test: cell-based
T3 construct: host or cells: HEK293
T3 sequence (P28335 33-458): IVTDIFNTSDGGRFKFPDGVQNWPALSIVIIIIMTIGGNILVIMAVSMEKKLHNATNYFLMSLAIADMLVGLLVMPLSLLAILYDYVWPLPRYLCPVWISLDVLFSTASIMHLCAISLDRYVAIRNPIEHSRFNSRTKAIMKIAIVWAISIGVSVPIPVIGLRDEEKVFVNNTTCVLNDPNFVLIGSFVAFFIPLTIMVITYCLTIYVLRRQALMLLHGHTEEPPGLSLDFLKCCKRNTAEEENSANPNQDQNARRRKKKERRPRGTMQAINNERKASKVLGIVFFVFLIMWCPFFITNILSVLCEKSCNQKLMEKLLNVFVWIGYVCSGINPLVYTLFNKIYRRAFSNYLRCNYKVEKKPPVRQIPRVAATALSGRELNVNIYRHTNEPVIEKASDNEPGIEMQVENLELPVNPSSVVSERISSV

[1] = agonist activity, Ca2+ flux, HEK293 cells
[2] = agonist activity, Ca2+ flux, HEK293 cells, read-out: 5-HT2A EC50
[3] = agonist activity, Ca2+ flux, CHO-K1 cells
[4] = agonist activity, Ca2+ flux, CHO-K1 cells, read-out: 5-HT2B EC50
[5] = agonist activity, Ca2+ flux, HEK293 cells, read-out: 5-HT2C EC50

T1 sequence (P28223 whole entry): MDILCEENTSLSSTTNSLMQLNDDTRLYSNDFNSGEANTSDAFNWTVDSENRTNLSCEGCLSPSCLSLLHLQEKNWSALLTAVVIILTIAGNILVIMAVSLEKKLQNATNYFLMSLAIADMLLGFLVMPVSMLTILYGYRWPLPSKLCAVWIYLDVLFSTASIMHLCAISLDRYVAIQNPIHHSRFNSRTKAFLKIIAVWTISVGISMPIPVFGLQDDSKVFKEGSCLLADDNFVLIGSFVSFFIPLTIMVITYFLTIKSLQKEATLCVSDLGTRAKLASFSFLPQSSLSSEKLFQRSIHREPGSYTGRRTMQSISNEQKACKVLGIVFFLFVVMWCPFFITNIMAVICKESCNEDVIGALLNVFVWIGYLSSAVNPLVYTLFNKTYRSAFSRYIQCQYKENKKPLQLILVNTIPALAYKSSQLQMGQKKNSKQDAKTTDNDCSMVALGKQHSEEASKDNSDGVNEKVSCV

CN(C)CCc1c[nH]c2cc3c(cc12)OCC3 [Example P-1, 2-(3,5-dihydro-2H-furo[2,3-f]indol-7-yl)-N,N-dimethylethan-1-amine]
Emax (5-HT2A receptor; [1]): 63.9%
pEC50 (5-HT2A receptor; [2]): 6.86
Emax (5-HT2B receptor; [3]): 2.92%
pEC50 (5-HT2B receptor; [4]): < 5.00
Emax (5-HT2C receptor; [1]): 82.3%
pEC50 (5-HT2C receptor; [5]): 6.87

CN(C)CCc1c[nH]c2cc3ccoc3cc12 [Example P-2, 2-(5H-Furo[2,3-f]indol-7-yl)-N,N-dimethylethan-1-amine]
Emax (5-HT2A receptor; [1]): 46.5%
pEC50 (5-HT2A receptor; [2]): 6.68
Emax (5-HT2B receptor; [3]): -1.07%
pEC50 (5-HT2B receptor; [4]): < 5.00
Emax (5-HT2C receptor; [1]): 80.6%
pEC50 (5-HT2C receptor; [5]): 7.25

CN(C)CCc1c[nH]c2ccc3c(c12)OCC3 [Example P-3, 2-(3,6-dihydro-2H-furo[2,3-e]indol-8-yl)-N,N-dimethylethan-1-amine]
Emax (5-HT2A receptor; [1]): 81%
pEC50 (5-HT2A receptor; [2]): 8.01
Emax (5-HT2B receptor; [3]): 13.8%
pEC50 (5-HT2B receptor; [4]): < 5.00
Emax (5-HT2C receptor; [1]): 76.4%
pEC50 (5-HT2C receptor; [5]): 7.79

CN(C)CCc1c[nH]c2cc3occc3cc12 [Example P-4, 2-(7H-furo[3,2-f]indol-5-yl)-N,N-dimethylethan-1-amine]
pEC50 (5-HT2A receptor): 8.03
Emax (5-HT2A receptor; [1]): 70.4%
pEC50 (5-HT2B receptor): < 5.00
Emax (5-HT2B receptor; [3]): 4.68%
pEC50 (5-HT2C receptor): 8.21
Emax (5-HT2C receptor; [1]): 78.9%

COc1ccc2[nH]cc(CCN(C)C)c2c1C [Example P-6, 2-(5-methoxy-4-methyl-1H-indol-3-yl)-N,N-dimethylethan-1-amine]
Emax (5-HT2A receptor; [1]): 64.1%
pEC50 (5-HT2A receptor; [2]): 6.90
Emax (5-HT2B receptor; [3]): 11.3%
pEC50 (5-HT2B receptor; [4]): < 5.00
Emax (5-HT2C receptor; [1]): 73.6%
pEC50 (5-HT2C receptor; [5]): 6.52

COc1cc2c(CCN(C)C)c[nH]c2cc1C [Example P-7, 2-(5-methoxy-6-methyl-1H-indol-3-yl)-N,N-dimethylethan-1-amine]
Emax (5-HT2A receptor; [1]): 81.9%
pEC50 (5-HT2A receptor; [2]): 7.80
Emax (5-HT2B receptor; [3]): 1.71%
pEC50 (5-HT2B receptor; [4]): < 5.00
Emax (5-HT2C receptor; [1]): 81.1%
pEC50 (5-HT2C receptor; [5]): 6.96

COc1c(C)ccc2[nH]cc(CCN(C)C)c12 [Example P-9, 2-(4-methoxy-5-methyl-1H-indol-3-yl)-N,N-dimethylethan-1-amine]
Emax (5-HT2A receptor; [1]): 65%
pEC50 (5-HT2A receptor; [2]): 7.61
Emax (5-HT2B receptor; [3]): 17.3%
pEC50 (5-HT2B receptor; [4]): < 5.00
Emax (5-HT2C receptor; [1]): 80.7%
pEC50 (5-HT2C receptor; [5]): 8.21

Cc1ccc2[nH]cc(CCN(C)C)c2c1O [Example P-10, 3-(2-(dimethylamino)ethyl)-5-methyl-1H-indol-4-ol]
Emax (5-HT2A receptor; [1]): 63.1%
pEC50 (5-HT2A receptor; [2]): 7.26
Emax (5-HT2B receptor; [3]): -0.21%
pEC50 (5-HT2B receptor; [4]): < 5.00
Emax (5-HT2C receptor; [1]): 71.2%
pEC50 (5-HT2C receptor; [5]): 7.14

Cc1cc(O)c2c(CCN(C)C)c[nH]c2c1 [Example P-12, 3-(2-(dimethylamino)ethyl)-6-methyl-1H-indol-4-ol]
Emax (5-HT2A receptor; [1]): 67.8%
pEC50 (5-HT2A receptor; [2]): 7.09
Emax (5-HT2B receptor; [3]): 1.23%
pEC50 (5-HT2B receptor; [4]): < 5.00
Emax (5-HT2C receptor; [1]): 69.3%
pEC50 (5-HT2C receptor; [5]): 6.84

COc1ccc(C)c2[nH]cc(CCN(C)C)c12 [Example P-13, 2-(4-methoxy-7-methyl-1H-indol-3-yl)-N,N-dimethylethan-1-amine]
Emax (5-HT2A receptor; [1]): 36.1%
pEC50 (5-HT2A receptor; [2]): 6.97
Emax (5-HT2B receptor; [3]): 0.67%
pEC50 (5-HT2B receptor; [4]): < 5.00
Emax (5-HT2C receptor; [1]): 69.5%
pEC50 (5-HT2C receptor; [5]): 7.25

COc1cc(F)cc2[nH]cc(CCN(C)C)c12 [Example P-14, 2-(6-fluoro-4-methoxy-1H-indol-3-yl)-N,N-dimethylethan-1-amine]
Emax (5-HT2A receptor; [1]): 87.2%
pEC50 (5-HT2A receptor; [2]): 7.89
Emax (5-HT2B receptor; [3]): 0.17%
pEC50 (5-HT2B receptor; [4]): < 5.00
Emax (5-HT2C receptor; [1]): 75.7%
pEC50 (5-HT2C receptor; [5]): 8.59

COc1ccc2[nH]cc(CCN(C)C(C)C)c2c1C [Example P-38, N-(2-(5-methoxy-4-methyl-1H-indol-3-yl)ethyl)-N-methylpropan-2-amine]
Emax (5-HT2A receptor; [1]): 83.3%
pEC50 (5-HT2A receptor; [2]): 6.72
Emax (5-HT2B receptor; [3]): 45.4%
pEC50 (5-HT2B receptor; [4]): 6.18
Emax (5-HT2C receptor; [1]): 23.7%
pEC50 (5-HT2C receptor; [5]): < 5.00

CCN(CCc1c[nH]c2ccc(OC)c(C)c12)C(C)C [Example P-40, N-ethyl-N-(2-(5-methoxy-4-methyl-1H-indol-3-yl)ethyl)propan-2-amine]
Emax (5-HT2A receptor; [1]): 78.4%
pEC50 (5-HT2A receptor; [2]): 6.05
Emax (5-HT2B receptor; [3]): 33.8%
pEC50 (5-HT2B receptor; [4]): < 5.00
Emax (5-HT2C receptor; [1]): 0.71%
pEC50 (5-HT2C receptor; [5]): < 5.00

COc1cc2c(CCN(C)C(C)C)c[nH]c2cc1C [Example P-44, N-(2-(5-methoxy-6-methyl-1H-indol-3-yl)ethyl)-N-methylpropan-2-amine]
Emax (5-HT2A receptor; [1]): 72.6%
Emax (5-HT2B receptor; [3]): 7.11%
Emax (5-HT2C receptor; [1]): 70.8%

CCN(CC)CCc1c[nH]c2cc(C)c(OC)cc12 [Example P-45, N,N-diethyl-2-(5-methoxy-6-methyl-1H-indol-3-yl)ethan-1-amine]
5-HT2A Emax (5-HT2A receptor; [1]): 81.54%
pEC50 (5-HT2A receptor; [2]): 7.11
5-HT2B Emax (5-HT2B receptor; [3]): 23.83%
pEC50 (5-HT2B receptor; [4]): 6.07
5-HT2C Emax (5-HT2C receptor; [1]): 84.59%
pEC50 (5-HT2C receptor; [5]): 6.15

CCCN(CC)CCc1c[nH]c2cc(C)c(OC)cc12 [Example P-46, N-ethyl-N-(2-(5-methoxy-6-methyl-1H-indol-3-yl)ethyl)propan-1-amine]
5-HT2A Emax (5-HT2A receptor; [1]): 86.81%
pEC50 (5-HT2A receptor; [2]): 7.48
5-HT2B Emax (5-HT2B receptor; [3]): 37.67%
pEC50 (5-HT2B receptor; [4]): 6.28
5-HT2C Emax (5-HT2C receptor; [1]): 82.79%
pEC50 (5-HT2C receptor; [5]): 6.11

CCN(CCc1c[nH]c2cc(C)c(OC)cc12)C(C)C [Example P-47, N-ethyl-N-(2-(5-methoxy-6-methyl-1H-indol-3-yl)ethyl)propan-2-amine]
Emax (5-HT2A receptor; [1]): 64.7%
Emax (5-HT2B receptor; [3]): 43.2%
Emax (5-HT2C receptor; [1]): 80.8%

CCCN(CCC)CCc1c[nH]c2cc(C)c(OC)cc12 [Example P-48, N,N-dipropyl-2-(5-methoxy-6-methyl-1H-indol-3-yl)ethan-1-amine]
Emax (5-HT2A receptor; [1]): 77.5%
Emax (5-HT2B receptor; [3]): 56.8%
Emax (5-HT2C receptor; [1]): 74%

COc1cc2c(CCN(C(C)C)C(C)C)c[nH]c2cc1C [Example P-49, N-isopropyl-N-(2-(5-methoxy-6-methyl-1H-indol-3-yl)ethyl)propan-2-amine]
Emax (5-HT2A receptor; [1]): 83.5%
Emax (5-HT2B receptor; [3]): 74.8%
Emax (5-HT2C receptor; [1]): 87%

COc1cc(C)c2[nH]cc(CCN(C)C)c2c1 [Example P-50, 2-(5-methoxy-7-methyl-1H-indol-3-yl)-N,N-dimethylethan-1-amine]
Emax (5-HT2A receptor; [1]): 66.2%
pEC50 (5-HT2A receptor; [2]): 7.19
Emax (5-HT2B receptor; [3]): 0.5%
pEC50 (5-HT2B receptor; [4]): < 5.00
Emax (5-HT2C receptor; [1]): 56.4%
pEC50 (5-HT2C receptor; [5]): 6.27

CCCN(C)CCc1c[nH]c2c(C)cc(OC)cc12 [Example P-52, N-(2-(5-methoxy-7-methyl-1H-indol-3-yl)ethyl)-N-methylpropan-1-amine]
Emax (5-HT2A receptor; [1]): 58%
pEC50 (5-HT2A receptor; [2]): 6.79
Emax (5-HT2B receptor; [3]): 1.37%
pEC50 (5-HT2B receptor; [4]): < 5.00
Emax (5-HT2C receptor; [1]): 44.5%
pEC50 (5-HT2C receptor; [5]): 6.28

CCN(CC)CCc1c[nH]c2c(C)cc(OC)cc12 [Example P-54, N, N-diethyl-2-(5-methoxy-7-methyl-1H-indol-3-yl)ethan-1-amine]
Emax (5-HT2A receptor; [1]): 82.8%
pEC50 (5-HT2A receptor; [2]): 6.60
Emax (5-HT2B receptor; [3]): 7.69%
pEC50 (5-HT2B receptor; [4]): < 5.00
Emax (5-HT2C receptor; [1]): 58%
pEC50 (5-HT2C receptor; [5]): 5.76
